Data on 13 molecules can be found in ChEMBL document CHEMBL3259626, “Discovery of the first potent and selective Mycobacterium tuberculosis Zmp1 inhibitor” (Bioorg Med Chem Lett, 2014).

Assay [1] deals with Mycobacterium tuberculosis. Briefly: Inhibition of full length Mycobacterium tuberculosis recombinant ZMP1 expressed in Escherichia coli BL21(DE3) using MCA-Pro-Leu-Gly-Leu-Dpa-Ala-Arg-NH2 as substrate at 100 uM by fluorometric analysis relative to control.
A short description of assay [2]: Competitive inhibition of full length Mycobacterium tuberculosis recombinant ZMP1 expressed in Escherichia coli BL21(DE3) using MCA-Pro-Leu-Gly-Leu-Dpa-Ala-Arg-NH2 as substrate by sigma plot analysis.
Assay [3] is described as follows: Selectivity index, ratio of Ki for human neprilysin to Ki for full length Mycobacterium tuberculosis recombinant ZMP1.
A further assay concerns the target Neprilysin (Homo sapiens, UniProt P08473). As to the kind of experiment: Inhibition of human neprilysin by fluorometric analysis.

Molecules are shown by their SMILES. pKi: −log10 of the molar value.

Neprilysin, sequence (P08473 whole entry): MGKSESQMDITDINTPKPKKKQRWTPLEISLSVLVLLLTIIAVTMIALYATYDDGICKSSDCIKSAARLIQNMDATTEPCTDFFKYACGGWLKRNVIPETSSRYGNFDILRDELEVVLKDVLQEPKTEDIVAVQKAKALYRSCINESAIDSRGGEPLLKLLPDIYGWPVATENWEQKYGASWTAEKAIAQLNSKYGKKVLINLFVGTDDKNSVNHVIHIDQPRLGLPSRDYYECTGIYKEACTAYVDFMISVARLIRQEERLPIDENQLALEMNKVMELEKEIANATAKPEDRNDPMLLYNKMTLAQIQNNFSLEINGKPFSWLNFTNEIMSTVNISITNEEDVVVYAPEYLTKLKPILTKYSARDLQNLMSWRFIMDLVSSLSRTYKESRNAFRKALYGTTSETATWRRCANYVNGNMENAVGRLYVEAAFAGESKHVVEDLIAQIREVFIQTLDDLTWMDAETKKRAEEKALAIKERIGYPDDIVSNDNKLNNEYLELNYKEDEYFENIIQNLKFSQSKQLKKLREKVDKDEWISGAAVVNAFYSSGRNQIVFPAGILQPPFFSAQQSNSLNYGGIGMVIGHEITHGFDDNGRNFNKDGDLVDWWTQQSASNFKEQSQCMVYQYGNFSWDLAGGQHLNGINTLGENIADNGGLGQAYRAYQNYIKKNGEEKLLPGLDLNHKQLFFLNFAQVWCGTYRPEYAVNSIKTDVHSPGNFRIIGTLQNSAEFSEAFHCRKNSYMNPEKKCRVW

Regarding `C=Cc1[nH]c(C(C)NC(=O)c2ccc(=O)n(CC(=O)NCc3ccc(F)cc3)c2)nc1C` (stereo not drawn), the inhibition – broadly, the relative decrease from the control value, in per cent – in assay [1] stood at 16%.

For the molecule `O=C(O)c1ccc(/C=C2/SC(=S)N([C@H](Cc3ccccc3)C(=O)O)C2=O)cc1`, the pKi – broadly, the negative decadic logarithm of the Ki, by convention in mol/L – is 7.03 in assay [2] and 4.60 at Neprilysin. The Ratio Ki in assay [3] turned out to be 266.

As for `O=S(=O)(O)CCCSc1sc2ccc(Cl)cc2[n+]1CCCS(=O)(=O)O`, the pKi in assay [2] is 4.48. In addition, the inhibition in assay [1] turned out to be 78%.

Consider `O=C(O)CN1C(=O)/C(=C2/Sc3ccccc3N2CCCS(=O)(=O)O)SC1=S`, for which the pKi in assay [2] was 5.32.

Take `O=C(O)c1ccc(/C=C2/SC(=S)N([C@@H](Cc3ccccc3)C(=O)O)C2=O)cc1`: the pKi was 5.77 in assay [2] and 4.43 at Neprilysin. The Ratio Ki in assay [3] was 21.7.

On to `COC(=O)c1ccc(/C=C2\SC(=S)N([C@H](Cc3ccccc3)C(=O)O)C2=O)cc1`, for which, in assay [2], the pKi was 5.24.

For `O=C(NC(Cc1ccccc1)C(=O)O)/C(=C/c1cccc([N+](=O)[O-])c1)NC(=O)c1ccco1` (stereo not drawn), the inhibition in assay [1] is 54%.

On to `O=C(OCc1ccccc1)c1ccc(/C=C2\SC(=S)N([C@H](Cc3ccccc3)C(=O)O)C2=O)cc1`, for which the pKi in assay [2] was 5.74.

Regarding `Cn1c(=O)c2c(nc(SCC(=O)O)n2Cc2ccc(Cl)cc2)n(C)c1=O`, the inhibition in assay [1] was determined as 28%.

With `O=C1/C(=C\c2ccc(-c3cccc([N+](=O)[O-])c3)o2)SC(=S)N1CCS(=O)(=O)O`, the pKi in assay [2] is 4.49.

On to `O=C(O)c1ccc(/C=C2/SC(=S)N(C(Cc3ccccc3)C(=O)O)C2=O)cc1` (racemic), for which the pKi in assay [2] was 6.41.

As to `O=C(O)CCC(C(=O)O)N1C(=O)/C(=C\c2ccc(-c3cccc(Cl)c3Cl)o2)SC1=S` (stereo not drawn), the pKi in assay [2] is 5.43.

For the molecule `O=C(O)CC(C(=O)O)N1C(=O)/C(=C\c2ccc(O)c(O)c2)SC1=S` (stereo not drawn), in assay [2], the pKi was 5.57.
